Measured values reported in patent publication US20170305922A1, “CARM1 INHIBITORS AND USES THEREOF” (Epizyme, Inc., priority 2014, published 2017).

biological target: T1, Human CARM1 (PRMT4) (Homo sapiens, UniProt Q86X55); assay: CARM1 enzyme assay on peptide substrates (3H-SAM Flashplate); details: Biochemical assay; CARM1 0.25 nM, 3H-SAM 30 nM, peptide 250 nM; read-out: Biochem IC50
T1 construct: Flag-CARM1-His was eluted with 200 ug/ml FLAG peptide in buffer A; made in house; host or cells: HEK 293F cells infected with recombinant baculovirus (pFastBacMam)
T1 sequence (Q86X55 1-585 isoform Q86X55-1): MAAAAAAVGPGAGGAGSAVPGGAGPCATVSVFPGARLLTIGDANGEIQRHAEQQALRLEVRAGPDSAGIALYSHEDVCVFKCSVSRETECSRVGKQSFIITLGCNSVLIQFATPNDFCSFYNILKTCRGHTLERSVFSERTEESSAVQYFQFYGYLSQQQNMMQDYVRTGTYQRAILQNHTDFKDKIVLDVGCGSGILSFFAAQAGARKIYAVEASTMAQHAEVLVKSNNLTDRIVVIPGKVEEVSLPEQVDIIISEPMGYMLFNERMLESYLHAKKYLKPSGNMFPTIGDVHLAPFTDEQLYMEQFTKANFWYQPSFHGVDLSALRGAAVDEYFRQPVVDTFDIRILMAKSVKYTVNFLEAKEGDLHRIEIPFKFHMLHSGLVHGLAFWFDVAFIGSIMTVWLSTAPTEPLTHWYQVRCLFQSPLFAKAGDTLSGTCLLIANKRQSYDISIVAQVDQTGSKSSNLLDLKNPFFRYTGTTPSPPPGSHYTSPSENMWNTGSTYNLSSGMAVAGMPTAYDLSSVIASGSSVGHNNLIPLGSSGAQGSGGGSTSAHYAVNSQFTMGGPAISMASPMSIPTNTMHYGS

IC50 [µM] | Structure (SMILES)
0.0042 | CNC[C@@H](O)COc1ccc(Cl)c(-c2nc(-c3c(C)noc3C)c(C)c(N3CC4(CN(C(=O)OCC(F)F)C4)C3)n2)c1 [Example 220]
0.0015 | CNC[C@@H](O)COc1ccc(Cl)c(-c2nc(-c3c(C)noc3C)c(C)c(N3Cc4ccc(N5CCC5)nc4C3)n2)c1 [Example 221]
0.0068 | CNC[C@@H](O)COc1ccc(Cl)c(-c2nc(-c3c(C)noc3C)c(C)c(N3CCN(CC(F)F)CC3)n2)c1 [Example 224]
0.0093 | CC[C@H]1CN(c2nc(-c3cc(OC[C@H](O)CNC)ccc3Cl)nc(-c3c(C)noc3C)c2C)CCN1CC(F)F [Example 225]
0.0046 | CCc1noc(C)c1-c1nc(-c2cc(OC[C@H](O)CNC)ccc2Cl)nc(N2Cc3cccnc3C2)c1C [Example 226]
0.008 | CCc1onc(C)c1-c1nc(-c2cc(OC[C@H](O)CNC)ccc2Cl)nc(N2CC3(CN(CC(F)(F)F)C3)C2)c1C [Example 227]
0.0047 | CNC[C@@H](O)COc1ccc(Cl)c(-c2nc(-c3c(C)noc3C)c(C)c(N3CC4(CC(OC(F)(F)F)C4)C3)n2)c1 [Example 228]
0.0019 | CNC[C@@H](O)COc1ccc(Cl)c(-c2nc(-c3c(C)noc3C)c(C)c(N3Cc4ccc(N5CC(OC)C5)nc4C3)n2)c1 [Example 229]
0.0046 | CCOC1CC2(C1)CN(c1nc(-c3cc(OC[C@H](O)CNC)ccc3Cl)nc(-c3c(C)noc3C)c1C)C2 [Example 231]
0.0049 | CNC[C@@H](O)COc1ccc(Cl)c(-c2nc(-c3c(C)noc3C)c(C)c(N3CCN(C(=O)OCC(F)F)CC3)n2)c1 [Example 232]
0.0043 | CNC[C@@H](O)COc1ccc(Cl)c(-c2nc(-c3c(C)c(Cl)nn3C)c(C)c(N3CC4(CN(CC(F)(F)F)C4)C3)n2)c1 [Example 233]
0.0061 | CNC[C@@H](O)COc1ccc(Cl)c(-c2nc(-c3c(C)noc3C)c(C)c(N3CC4(CCC(OC(F)(F)F)CC4)C3)n2)c1 [Example 234]
0.0007 | CNC[C@@H](O)COc1ccc(Cl)c(-c2nc(-c3c(C)noc3C)c(C)c(N3Cc4nccc(OCC(F)F)c4C3)n2)c1 [Example 235]
0.0018 | CNC[C@@H](O)COc1ccc(Cl)c(-c2nc(-c3c(C)noc3C)c(C)c(N3Cc4nccc(OC)c4C3)n2)c1 [Example 236]
0.0006 | CNC[C@@H](O)COc1ccc(Cl)c(-c2nc(-c3c(C)noc3C)c(C)c(N3CC4=C(CN(C)CC4)C3)n2)c1 [Example 237]
0.005 | CNC[C@@H](O)COc1ccc(Cl)c(-c2nc(-c3c(C)c(Br)nn3C)c(C)c(N3CC4(CC(OC(F)(F)F)C4)C3)n2)c1 [Example 238]
0.0047 | CNC[C@@H](O)COc1ccc(Cl)c(-c2nc(-c3c(C)noc3C)c(C)c(N3CC4(CC(OC(=O)OC)C4)C3)n2)c1 [Example 239]
0.0041 | CNC[C@@H](O)COc1ccc(Cl)c(-c2nc(-c3c(C)noc3C)c(C)c(N3CC(C)(C#N)C3)n2)c1 [Example 240]
0.0062 | CNC[C@@H](O)COc1ccc(Cl)c(-c2nc(-c3c(C)noc3C)c(C)c(N3CC4(CC(OCCOC)C4)C3)n2)c1 [Example 241]
0.0008 | CNC[C@@H](O)COc1ccc(Cl)c(-c2nc(-c3c(Br)cnn3C)c(C)c(N3Cc4ccc(N5CCC5)nc4C3)n2)c1 [Example 243]
0.0012 | CNC[C@@H](O)COc1ccc(Cl)c(-c2nc(-c3c(I)cnn3C)c(C)c(N3Cc4cccnc4C3)n2)c1 [Example 244]
0.002 | CCOc1ccc2c(n1)CN(c1nc(-c3cc(OC[C@H](O)CNC)ccc3Cl)nc(-c3c(C)noc3C)c1C)C2 [Example 245]
0.0067 | CNC[C@@H](O)COc1ccc(Cl)c(-c2nc(-c3c(C)noc3C)c(C)c(N3CC4(CC(O)C4)C3)n2)c1 [Example 246]
0.004 | CNC[C@@H](O)COc1ccc(Cl)c(-c2nc(-c3c(C)noc3C)c(C)c(N3CC4=C(CN(CC(F)(F)F)CC4)C3)n2)c1 [Example 247]

test system: asymmetric di-methyl PABP1 in RKO cells; assay: RKO methylation assay: In Cell Western (ICW) for asymmetric di-methyl PABP1 (PABP1me2a); details: Homo sapiens, RKO, 48 h, Cellular-based (PABP1me2a) ICW (In Cell Western) assay
In short: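 In-cell western on compound-exposed RKO cells (48 hours): asymmetric di-methyl PABP1 detected by antibody at 800 nm, DNA content by DRAQ5 at 700 nm. Percent inhibition from signal ratios against DMSO (minimum) and 20 μM reference compound (maximum) wells; IC50 curves fitted from triplicates.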

IC50 [µM] | Structure (SMILES)
0.221 | CNC[C@@H](O)COc1ccc(Cl)c(-c2nc(-c3c(C)noc3C)c(C)c(N3CC4(CN(C(=O)OCC(F)F)C4)C3)n2)c1 [Example 220]
0.017 | CNC[C@@H](O)COc1ccc(Cl)c(-c2nc(-c3c(C)noc3C)c(C)c(N3Cc4ccc(N5CCC5)nc4C3)n2)c1 [Example 221]
0.33 | CNC[C@@H](O)COc1ccc(Cl)c(-c2nc(-c3c(C)noc3C)c(C)c(N3CCN(CC(F)F)CC3)n2)c1 [Example 224]
0.445 | CC[C@H]1CN(c2nc(-c3cc(OC[C@H](O)CNC)ccc3Cl)nc(-c3c(C)noc3C)c2C)CCN1CC(F)F [Example 225]
0.134 | CCc1noc(C)c1-c1nc(-c2cc(OC[C@H](O)CNC)ccc2Cl)nc(N2Cc3cccnc3C2)c1C [Example 226]
0.059 | CCc1onc(C)c1-c1nc(-c2cc(OC[C@H](O)CNC)ccc2Cl)nc(N2CC3(CN(CC(F)(F)F)C3)C2)c1C [Example 227]
0.073 | CNC[C@@H](O)COc1ccc(Cl)c(-c2nc(-c3c(C)noc3C)c(C)c(N3CC4(CC(OC(F)(F)F)C4)C3)n2)c1 [Example 228]
0.014 | CNC[C@@H](O)COc1ccc(Cl)c(-c2nc(-c3c(C)noc3C)c(C)c(N3Cc4ccc(N5CC(OC)C5)nc4C3)n2)c1 [Example 229]
0.041 | CCOC1CC2(C1)CN(c1nc(-c3cc(OC[C@H](O)CNC)ccc3Cl)nc(-c3c(C)noc3C)c1C)C2 [Example 231]
0.348 | CNC[C@@H](O)COc1ccc(Cl)c(-c2nc(-c3c(C)noc3C)c(C)c(N3CCN(C(=O)OCC(F)F)CC3)n2)c1 [Example 232]
0.029 | CNC[C@@H](O)COc1ccc(Cl)c(-c2nc(-c3c(C)c(Cl)nn3C)c(C)c(N3CC4(CN(CC(F)(F)F)C4)C3)n2)c1 [Example 233]
0.105 | CNC[C@@H](O)COc1ccc(Cl)c(-c2nc(-c3c(C)noc3C)c(C)c(N3CC4(CCC(OC(F)(F)F)CC4)C3)n2)c1 [Example 234]
0.054 | CNC[C@@H](O)COc1ccc(Cl)c(-c2nc(-c3c(C)noc3C)c(C)c(N3Cc4nccc(OCC(F)F)c4C3)n2)c1 [Example 235]
0.063 | CNC[C@@H](O)COc1ccc(Cl)c(-c2nc(-c3c(C)noc3C)c(C)c(N3Cc4nccc(OC)c4C3)n2)c1 [Example 236]
0.157 | CNC[C@@H](O)COc1ccc(Cl)c(-c2nc(-c3c(C)noc3C)c(C)c(N3CC4=C(CN(C)CC4)C3)n2)c1 [Example 237]
0.116 | CNC[C@@H](O)COc1ccc(Cl)c(-c2nc(-c3c(C)c(Br)nn3C)c(C)c(N3CC4(CC(OC(F)(F)F)C4)C3)n2)c1 [Example 238]
0.052 | CNC[C@@H](O)COc1ccc(Cl)c(-c2nc(-c3c(C)noc3C)c(C)c(N3CC4(CC(OC(=O)OC)C4)C3)n2)c1 [Example 239]
0.398 | CNC[C@@H](O)COc1ccc(Cl)c(-c2nc(-c3c(C)noc3C)c(C)c(N3CC(C)(C#N)C3)n2)c1 [Example 240]
0.084 | CNC[C@@H](O)COc1ccc(Cl)c(-c2nc(-c3c(C)noc3C)c(C)c(N3CC4(CC(OCCOC)C4)C3)n2)c1 [Example 241]
0.037 | CNC[C@@H](O)COc1ccc(Cl)c(-c2nc(-c3c(Br)cnn3C)c(C)c(N3Cc4ccc(N5CCC5)nc4C3)n2)c1 [Example 243]
0.141 | CNC[C@@H](O)COc1ccc(Cl)c(-c2nc(-c3c(I)cnn3C)c(C)c(N3Cc4cccnc4C3)n2)c1 [Example 244]
0.038 | CCOc1ccc2c(n1)CN(c1nc(-c3cc(OC[C@H](O)CNC)ccc3Cl)nc(-c3c(C)noc3C)c1C)C2 [Example 245]
0.352 | CNC[C@@H](O)COc1ccc(Cl)c(-c2nc(-c3c(C)noc3C)c(C)c(N3CC4(CC(O)C4)C3)n2)c1 [Example 246]
0.062 | CNC[C@@H](O)COc1ccc(Cl)c(-c2nc(-c3c(C)noc3C)c(C)c(N3CC4=C(CN(CC(F)(F)F)CC4)C3)n2)c1 [Example 247]
